pIC50: −log10 of the molar value.
Tested on: 171881-019-R-J1-PDC tumor spheroid viability
Test: Anticancer human tumor 171881-019-R-J1-PDC patient-derived invasive breast carcinoma cell line growth inhibition [PI3K]
Conditions: spheroids with HUVEC and MSC; for pIC50: curve of first compound; for viability, T/C: stronger effect = lower value
Procedure, shortened: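 High-throughput combination screen: PI3K inhibitors crossed with targeted small molecules on complex spheroids of tumor cells, HUVEC and MSCs at 37 degrees C, 5% CO2. Top concentration was at or near clinical Cmax (otherwise 10 microM), with half-log decrements.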

[1] = second compound 0.0316 µM, first compound 0.0316 µM
[2] = second compound 0.0316 µM, first compound 0.1 µM
[3] = second compound 0.0316 µM, first compound 0.316 µM
[4] = second compound 0.0316 µM, first compound 1 µM
[5] = second compound 0.0316 µM, first compound 3.16 µM
[6] = second compound 0.0316 µM, first compound 10 µM
[7] = second compound 0.1 µM, first compound 0.0316 µM
[8] = second compound 0.1 µM, first compound 0.1 µM
[9] = second compound 0.1 µM, first compound 0.316 µM
[10] = second compound 0.1 µM, first compound 1 µM
[11] = second compound 0.1 µM, first compound 3.16 µM
[12] = second compound 0.1 µM, first compound 10 µM
[13] = second compound 0.316 µM, first compound 0.0316 µM
[14] = second compound 0.316 µM, first compound 0.1 µM
[15] = second compound 0.316 µM, first compound 0.316 µM
[16] = second compound 0.316 µM, first compound 1 µM
[17] = second compound 0.316 µM, first compound 3.16 µM
[18] = second compound 0.316 µM, first compound 10 µM
[19] = second compound 1 µM, first compound 0.0316 µM
[20] = second compound 1 µM, first compound 0.1 µM
[21] = second compound 1 µM, first compound 0.316 µM
[22] = second compound 1 µM, first compound 1 µM
[23] = second compound 1 µM, first compound 3.16 µM
[24] = second compound 1 µM, first compound 10 µM
[25] = second compound 3.16 µM, first compound 0.0316 µM
[26] = second compound 3.16 µM, first compound 0.1 µM
[27] = second compound 3.16 µM, first compound 0.316 µM
[28] = second compound 3.16 µM, first compound 1 µM
[29] = second compound 3.16 µM, first compound 3.16 µM
[30] = second compound 3.16 µM, first compound 10 µM
[31] = second compound 10 µM, first compound 0.0316 µM
[32] = second compound 10 µM, first compound 0.1 µM
[33] = second compound 10 µM, first compound 0.316 µM
[34] = second compound 10 µM, first compound 1 µM
[35] = second compound 10 µM, first compound 3.16 µM
[36] = second compound 10 µM, first compound 10 µM
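Also: spheroids exposed to compound for 7 days before viability read.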
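For viability, T/C in this document: 100% = DMSO vehicle-treated spheroids.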

Structure (SMILES): CC(C)NCC(C(=O)N1CCN(c2ncnc3c2C(C)CC3O)CC1)c1ccc(Cl)cc1 (stereo unspecified) + CC(Nc1ncnc2nc[nH]c12)c1cc2cccc(Cl)c2c(=O)n1-c1ccccc1
- pIC50 (second compound 0.0316 µM): 6.41
- pIC50 (second compound 0.1 µM): 6.53
- pIC50 (second compound 0.316 µM): 6.41
- pIC50 (second compound 1 µM): 6.40
- pIC50 (second compound 3.16 µM): 6.45
- pIC50 (second compound 10 µM): 6.82
- viability, T/C [1]: 96.1%
- viability, T/C [2]: 83.8%
- viability, T/C [3]: 54.5%
- viability, T/C [4]: 27.6%
- viability, T/C [5]: 14.6%
- viability, T/C [6]: 11.4%
- viability, T/C [7]: 97.6%
- viability, T/C [8]: 73.1%
- viability, T/C [9]: 48.4%
- viability, T/C [10]: 29.4%
- viability, T/C [11]: 14.6%
- viability, T/C [12]: 10.1%
- viability, T/C [13]: 80%
- viability, T/C [14]: 82.8%
- viability, T/C [15]: 50.9%
- viability, T/C [16]: 30%
- viability, T/C [17]: 14.4%
- viability, T/C [18]: 9.02%
- viability, T/C [19]: 93.2%
- viability, T/C [20]: 81%
- viability, T/C [21]: 55.9%
- viability, T/C [22]: 28%
- viability, T/C [23]: 12.5%
- viability, T/C [24]: 8.65%
- viability, T/C [25]: 78.6%
- viability, T/C [26]: 75.1%
- viability, T/C [27]: 51.2%
- viability, T/C [28]: 27.1%
- viability, T/C [29]: 11.5%
- viability, T/C [30]: 8.08%
- viability, T/C [31]: 57%
- viability, T/C [32]: 53.6%
- viability, T/C [33]: 43%
- viability, T/C [34]: 21.6%
- viability, T/C [35]: 9.56%
- viability, T/C [36]: 5.96%

Structure (SMILES): CCN1CCN(Cc2ccc(Nc3ncc(F)c(-c4cc(F)c5nc(C)n(C(C)C)c5c4)n3)nc2)CC1 + CC(Nc1ncnc2nc[nH]c12)c1cc2cccc(Cl)c2c(=O)n1-c1ccccc1
- pIC50 (second compound 0.0316 µM): < 6.00
- pIC50 (second compound 0.1 µM): < 6.00
- pIC50 (second compound 0.316 µM): < 6.00
- pIC50 (second compound 1 µM): < 6.00
- pIC50 (second compound 3.16 µM): < 6.00
- pIC50 (second compound 10 µM): < 6.00
- viability, T/C (second compound 0.0316 µM, first compound 0.00316 µM): 96.4%
- viability, T/C (second compound 0.0316 µM, first compound 0.01 µM): 98.5%
- viability, T/C [1]: 103%
- viability, T/C [2]: 98%
- viability, T/C [3]: 122%
- viability, T/C [4]: 117%
- viability, T/C (second compound 0.1 µM, first compound 0.00316 µM): 99%
- viability, T/C (second compound 0.1 µM, first compound 0.01 µM): 95.5%
- viability, T/C [7]: 99.8%
- viability, T/C [8]: 110%
- viability, T/C [9]: 113%
- viability, T/C [10]: 118%
- viability, T/C (second compound 0.316 µM, first compound 0.00316 µM): 95.4%
- viability, T/C (second compound 0.316 µM, first compound 0.01 µM): 103%
- viability, T/C [13]: 103%
- viability, T/C [14]: 105%
- viability, T/C [15]: 111%
- viability, T/C [16]: 116%
- viability, T/C (second compound 1 µM, first compound 0.00316 µM): 92.7%
- viability, T/C (second compound 1 µM, first compound 0.01 µM): 98.4%
- viability, T/C [19]: 97.5%
- viability, T/C [20]: 108%
- viability, T/C [21]: 114%
- viability, T/C [22]: 114%
- viability, T/C (second compound 3.16 µM, first compound 0.00316 µM): 95.5%
- viability, T/C (second compound 3.16 µM, first compound 0.01 µM): 94.8%
- viability, T/C [25]: 72.9%
- viability, T/C [26]: 98.6%
- viability, T/C [27]: 104%
- viability, T/C [28]: 101%
- viability, T/C (second compound 10 µM, first compound 0.00316 µM): 67.5%
- viability, T/C (second compound 10 µM, first compound 0.01 µM): 61%
- viability, T/C [31]: 69.5%
- viability, T/C [32]: 72.5%
- viability, T/C [33]: 80.8%
- viability, T/C [34]: 84.3%

Structure (SMILES): Cn1ncc(Cl)c1-c1cc(C(=O)NC(CN)Cc2cccc(F)c2)sc1Cl (stereo unspecified) + CC(Nc1ncnc2nc[nH]c12)c1cc2cccc(Cl)c2c(=O)n1-c1ccccc1
- pIC50 (second compound 0.0316 µM): 6.84
- pIC50 (second compound 0.1 µM): 6.76
- pIC50 (second compound 0.316 µM): 6.79
- pIC50 (second compound 1 µM): 6.82
- pIC50 (second compound 3.16 µM): 6.90
- pIC50 (second compound 10 µM): 7.15
- viability, T/C [1]: 88.2%
- viability, T/C [2]: 58.2%
- viability, T/C [3]: 32.5%
- viability, T/C [4]: 20.9%
- viability, T/C [5]: 13.4%
- viability, T/C [6]: 3.64%
- viability, T/C [7]: 81.7%
- viability, T/C [8]: 64.9%
- viability, T/C [9]: 33.2%
- viability, T/C [10]: 20.6%
- viability, T/C [11]: 13.3%
- viability, T/C [12]: 6.15%
- viability, T/C [13]: 86.4%
- viability, T/C [14]: 62.4%
- viability, T/C [15]: 32.8%
- viability, T/C [16]: 21.4%
- viability, T/C [17]: 13.1%
- viability, T/C [18]: 4.15%
- viability, T/C [19]: 72.2%
- viability, T/C [20]: 59.6%
- viability, T/C [21]: 33.7%
- viability, T/C [22]: 18.5%
- viability, T/C [23]: 11.6%
- viability, T/C [24]: 3.79%
- viability, T/C [25]: 78.5%
- viability, T/C [26]: 55.3%
- viability, T/C [27]: 30.4%
- viability, T/C [28]: 17.1%
- viability, T/C [29]: 9%
- viability, T/C [30]: 2.75%
- viability, T/C [31]: 62.5%
- viability, T/C [32]: 44.8%
- viability, T/C [33]: 25.2%
- viability, T/C [34]: 12.3%
- viability, T/C [35]: 6.81%
- viability, T/C [36]: 2.88%

From PubChem BioAssay AID1963986 (Molecular Pharmacology Branch, DTP, NCI, 2024)
